Here are results for 30 molecules from patent US20190389843A1, “PYRROLE mTORC INHIBITORS AND USES THEREOF” (Navitor Pharmaceuticals, Inc., priority 2016, published 2019).

The structures appear in SMILES notation. Structures can show the parent of a compound that is named as a salt.

In test [1] the test system is pS6K1 in MCF7 (measure of mTORC1 activity). As to the kind of experiment: AlphaLISA Ultra pS6K1 assay. In kind it is cell-based. To be noted: Homo sapiens, MCF7, 2 h, MCF-7 cells, 2 hours compound incubation. In outline: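 MCF7 cells, refreshed medium 2 h, treated with compound 2 h at 0.5% DMSO final, then lysed. Phospho-S6K1 in lysates detected by AlphaLISA Ultra (acceptor beads 2 h, donor beads 2 h), read as Alpha signal on a multimode reader.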
In general terms: Alpha assays give light when donor and acceptor beads are brought close together.

The test system of test [2] is pAKT in MCF7 (measure of mTORC2 activity). The experiment in a line: AlphaLISA Ultra pAKT assay. In kind it is cell-based. To be noted: Homo sapiens, MCF7, 2 h, MCF-7 cells, 2 hours compound incubation. In outline: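 MCF7 cells, 16,000-20,000 per well, treated with compound for 2 h at 0.5% final DMSO, then lysed. Phospho-AKT, as a readout of mTORC2 activity, measured by AlphaLISA Ultra with acceptor beads and then donor beads, 2 h each.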

The term IC50 denotes the concentration at which inhibition is half-maximal. Read a low IC50 as greater potency in that assay. Turning to `Cc1c(CN2CCN(c3ccccc3Cl)CC2)cc(C(=O)N2CCN(c3cccc(F)c3)CC2)n1C` [Example I-108, (4-((4-(2-Chlorophenyl)piperazin-1-yl)methyl)-1,5-dimethyl-1H-pyrrol-2-yl)(4-(3-fluorophenyl)piperazin-1-yl)methanone], the IC50 was 10 to 1000 nM in test [1] and greater than 1000 nM in test [2].
For `Cc1c(CN2CCN(c3ccccc3Cl)CC2)cc(C(=O)N2CCN(c3ccc(F)c(F)c3)CC2)n1C` [Example I-109, (4-((4-(2-chlorophenyl)piperazin-1-yl)methyl)-1,5-dimethyl-1H-pyrrol-2-yl)(4-(3,4-difluorophenyl)piperazin-1-yl)methanone], in that order: 10 to 1000 nM and greater than 1000 nM.
The like results for `Cc1c(CN2CCN(c3ccccc3Cl)CC2)cc(C(=O)N2CCN(c3cccc(C#N)c3)CC2)n1C` [Example I-110, 3-(4-(4-((4-(2-chlorophenyl)piperazin-1-yl)methyl)-1,5-dimethyl-1H-pyrrole-2-carbonyl)piperazin-1-yl)benzonitrile] were, in that order, 10 to 1000 nM and greater than 1000 nM.
The like results for `Cc1c(CN2CCN(c3ccccc3Cl)CC2)cc(C(=O)N2CCN(c3cc(F)c(F)c(F)c3)CC2)n1C` [Example I-111, (4-((4-(2-Chlorophenyl)piperazin-1-yl)methyl)-1,5-dimethyl-1H-pyrrol-2-yl)(4-(3,4,5-trifluorophenyl)piperazin-1-yl)methanone] were, in that order, 10 to 1000 nM and greater than 3000 nM.
Turning to `Cc1c(CN2CCN(c3ccccc3Cl)CC2)cc(C(=O)N2CCN(c3cccc(Cl)c3)C[C@@H]2C)n1C` [Example I-112, (S)-(4-(3-chlorophenyl)-2-methylpiperazin-1-yl)(4-((4-(2-chlorophenyl)piperazin-1-yl)methyl)-1,5-dimethyl-1H-pyrrol-2-yl)methanone], the IC50 in test [1] is 10 to 1000 nM; in test [2], greater than 3000 nM.
The like results for `O=C(c1cc(CN2CCN(c3ccccc3Cl)CC2)cn1CC(F)(F)F)N1CCN(c2ccccc2)CC1` [Example I-114, (4-((4-(2-Chlorophenyl)piperazin-1-yl)methyl)-1-(2,2,2-trifluoroethyl)-1H-pyrrol-2-yl)(4-phenylpiperazin-1-yl)methanone trifluoroacetate salt] were, in that order, 1000 to 3000 nM and greater than 10000 nM.
Regarding `Cc1c(CN2CCN(c3ccccc3Cl)CC2)cc(C(=O)N2CCN(c3ccc(F)cc3)CC2)n1C` [Example I-115, (4-((4-(2-Chlorophenyl)piperazin-1-yl)methyl)-1,5-dimethyl-1H-pyrrol-2-yl)(4-(4-fluorophenyl)piperazin-1-yl)methanone], the half-maximal inhibitory concentration (IC50) in test [1] was 10 to 1000 nM; in test [2] it was greater than 3000 nM.
For `Cc1c(CN2CCN(c3ccccc3Cl)CC2)cc(C(=O)N2CCN(c3ccc(F)c(F)c3)C[C@@H]2C)n1C` [Example I-116, (S)-(4-((4-(2-chlorophenyl)piperazin-1-yl)methyl)-1,5-dimethyl-1H-pyrrol-2-yl)(4-(3,4-difluorophenyl)-2-methylpiperazin-1-yl)methanone], in that order: 10 to 1000 nM and greater than 1000 nM.
For `C[C@H]1CN(c2ccc(F)c(F)c2)CCN1C(=O)c1cc(CN2CCN(c3ccccc3Cl)CC2)cn1C` [Example I-117, (S)-(4-((4-(2-chlorophenyl)piperazin-1-yl)methyl)-1-methyl-1H-pyrrol-2-yl)(4-(3,4-difluorophenyl)-2-methylpiperazin-1-yl)methanone], in that order: 10 to 1000 nM and greater than 3000 nM.
For `Cc1c(CN2CCN(c3ccccc3Cl)CC2)cc(C(=O)N2CCN(c3cccc(Cl)c3)CC2)n1C` [Example I-118, (4-(3-Chlorophenyl)piperazin-1-yl)(4-((4-(2-chlorophenyl)piperazin-1-yl)methyl)-1,5-dimethyl-1H-pyrrol-2-yl)methanone], in that order: 10 to 1000 nM and greater than 3000 nM.
Consider `Cn1cc(CN2CCN(c3ncccc3Cl)CC2)cc1C(=O)N1CCN(c2ccccc2)CC1` [Example I-119, (4-((4-(3-chloropyridin-2-yl)piperazin-1-yl)methyl)-1-methyl-1H-pyrrol-2-yl)(4-phenylpiperazin-1-yl)methanone], for which the 50% inhibitory concentration (IC50) in test [1] is 1000 to 3000 nM; in test [2], greater than 3000 nM.
For `Cc1c(CN2CCN(c3ccccc3Cl)CC2)cc(C(=O)N2CCN(c3cccc(C#N)c3)C[C@@H]2C)n1C` [Example I-120, (S)-3-(4-(4-((4-(2-chlorophenyl)piperazin-1-yl)methyl)-1,5-dimethyl-1H-pyrrole-2-carbonyl)-3-methylpiperazin-1-yl)benzonitrile], in that order: 10 to 1000 nM and greater than 1000 nM.
With `C[C@H]1CN(c2ccccc2C#N)CCN1C(=O)c1cc(CN2CCN(c3ccccc3Cl)CC2)cn1C` [Example I-121, (S)-2-(4-(4-((4-(2-chlorophenyl)piperazin-1-yl)methyl)-1-methyl-1H-pyrrole-2-carbonyl)-3-methylpiperazin-1-yl)benzonitrile], the IC50 is 10 to 1000 nM in test [1] and greater than 1000 nM in test [2].
The like results for `Cn1cc(CN2CCN(c3ccccc3Cl)CC2)cc1C(=O)N1CCN(c2ccccn2)CC1` [Example I-122] were, in that order, 10 to 1000 nM and greater than 1000 nM.
The like results for `C[C@H]1CN(c2cccc(C#N)c2)CCN1C(=O)c1cc(CN2CCN(c3ccccc3Cl)CC2)cn1C` [Example I-123, (S)-3-(4-(4-((4-(2-chlorophenyl)piperazin-1-yl)methyl)-1-methyl-1H-pyrrole-2-carbonyl)-3-methylpiperazin-1-yl)benzonitrile] were, in that order, 10 to 1000 nM and greater than 1000 nM.
Regarding `Cn1cc(CN2CCN(c3ccccc3C#N)CC2)cc1C(=O)N1CCN(c2ccccc2)CC1` [Example I-124, 2-(4-((1-methyl-5-(4-phenylpiperazine-1-carbonyl)-1H-pyrrol-3-yl)methyl)piperazin-1-yl)benzonitrile], the 50% inhibitory concentration (IC50) is 10 to 1000 nM in test [1] and greater than 3000 nM in test [2].
With `Cn1cc(CN2CCN(c3ccccc3C(F)(F)F)CC2)cc1C(=O)N1CCN(c2ccccc2)CC1` [Example I-126, 1-{[1-Methyl-5-(4-phenylpiperazine-1-carbonyl)-1H-pyrrol-3-yl]methyl}-4-[2-(trifluoromethyl)phenyl]piperazine], the results for the IC50 in test [1] and in test [2] were 3000 to 10000 nM and greater than 10000 nM, respectively.
The like results for `Cn1cc(CN2CCN(c3ccc(F)cc3Cl)CC2)cc1C(=O)N1CCN(c2ccc(F)cc2)CC1` [Example I-127] were, in that order, 1000 to 3000 nM and greater than 10000 nM.
For `Cn1cc(CN2CCC3(CCN(c4ccccc4Cl)C3)C2)cc1C(=O)N1CCN(c2ccc(F)cc2)CC1` (stereo not drawn) [Example I-128], in that order: 1000 to 3000 nM and greater than 10000 nM.
Consider `Cn1cc(CNC2CCN(c3ccccc3Cl)CC2)cc1C(=O)N1CCN(c2ccc(F)cc2)CC1` [Example I-129], for which the half-maximal inhibitory concentration (IC50) was 1000 to 3000 nM in test [1] and greater than 10000 nM in test [2].
For `Cn1cc(CN2CCC(Nc3ccccc3Cl)CC2)cc1C(=O)N1CCN(c2ccc(F)cc2)CC1` [Example I-130], in that order: 1000 to 3000 nM and greater than 10000 nM.
For `Cn1cc(CN2CC3CN(c4ccccc4Cl)CC3C2)cc1C(=O)N1CCN(c2ccc(F)cc2)CC1` (stereo not drawn) [Example I-131], in that order: 3000 to 10000 nM and greater than 10000 nM.
For the molecule `Cn1cc(CN2CCN(c3ccccc3Cl)CC2)cc1C(=O)N1CCN(c2cc(F)c(F)c(F)c2)CC1` [Example I-132, (4-((4-(2-Chlorophenyl)piperazin-1-yl)methyl)-1-methyl-1H-pyrrol-2-yl)(4-(3,4,5-trifluorophenyl)piperazin-1-yl)methanone trifluoroacetate salt], the values for the IC50 in test [1] and in test [2] were 3000 to 10000 nM and greater than 10000 nM, respectively.
Take `Cc1c(CN2CCN(c3ccccc3Cl)CC2)cc(C(=O)N2CCN(c3ccccc3)CC2)n1C` [Example I-133, (4-((4-(2-Chlorophenyl)piperazin-1-yl)methyl)-1,5-dimethyl-1H-pyrrol-2-yl)(4-phenylpiperazin-1-yl)methanone]: the 50% inhibitory concentration (IC50) in test [1] was 10 to 1000 nM; in test [2], greater than 1000 nM.
For `Cc1ccccc1N1CCN(Cc2cc(C(=O)N3CCN(c4ccccc4)CC3)n(C)c2)CC1` [Example I-134, (1-methyl-4-((4-o-tolylpiperazin-1-yl)methyl)-1H-pyrrol-2-yl)(4-phenylpiperazin-1-yl)methanone], in that order: 1000 to 3000 nM and greater than 3000 nM.
Regarding `Cn1cc(CN2CCN(c3ccccc3Cl)CC2)cc1C(=O)N1CCN(c2ccc(F)cc2)CC1` [Example I-135], the half-maximal inhibitory concentration (IC50) was 1000 to 3000 nM in test [1] and greater than 3000 nM in test [2].
For `C[C@H]1CN(c2ccccc2)CCN1C(=O)c1cc(CN2CCN(c3ccccc3Cl)CC2)cn1C` [Example I-136, (S)-(4-((4-(2-chlorophenyl)piperazin-1-yl)methyl)-1-methyl-1H-pyrrol-2-yl)(2-methyl-4-phenylpiperazin-1-yl)methanone], in that order: 1000 to 3000 nM and greater than 3000 nM.
For `C[C@@H]1CN(c2ccccc2)CCN1C(=O)c1cc(CN2CCN(c3ccccc3Cl)CC2)cn1C` [Example I-137, (R)-(4-((4-(2-chlorophenyl)piperazin-1-yl)methyl)-1-methyl-1H-pyrrol-2-yl)(2-methyl-4-phenylpiperazin-1-yl)methanone], in that order: 3000 to 10000 nM and greater than 10000 nM.
The like results for `Cn1cc(CN2CCN(c3ccccc3Cl)CC2)cc1C(=O)N1CCN(c2cccc(C#N)c2)CC1` [Example I-138, 3-(4-(4-((4-(2-chlorophenyl)piperazin-1-yl)methyl)-1-methyl-1H-pyrrole-2-carbonyl)piperazin-1-yl)benzonitrile] were, in that order, 1000 to 3000 nM and greater than 3000 nM.
In the case of `COCCn1cc(CN2CCN(c3ccccc3C(F)(F)F)CC2)cc1C(=O)N1CCN(c2ccccc2)CC1` [Example I-139], the IC50 was 3000 to 10000 nM in test [1] and greater than 10000 nM in test [2].
